Assay results taken from PubChem BioAssay (NCI).
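Tested at 5 concentrations; 48 h exposure; 96-well plates; endpoints linearly interpolated, else capped at highest concentration. The concentration for 50% growth inhibition is given as GI50. The concentration for full growth arrest is given as TGI.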

Experiments:
Test in all cases: NCI-60 cell line screen, 48 h
PC-3 prostate = system: PC-3 prostate
NCI-H522 lung = system: NCI-H522 lung
SR leukemia = system: SR leukemia
SF-268 CNS = system: SF-268 CNS
OVCAR-3 ovarian = system: OVCAR-3 ovarian
HOP-62 NSCLC = system: HOP-62 NSCLC
SNB-75 CNS = system: SNB-75 CNS
A498 renal = system: A498 renal
U251 CNS = system: U251 CNS
HCC-2998 colon = system: HCC-2998 colon

Row | SMILES | TGI (PC-3 prostate) | TGI (NCI-H522 lung) | TGI (SR leukemia) | TGI (SF-268 CNS) | TGI (OVCAR-3 ovarian) | TGI (HOP-62 NSCLC) | TGI (SNB-75 CNS) | TGI (A498 renal) | TGI (U251 CNS) | GI50 (PC-3 prostate) | GI50 (SF-268 CNS) | GI50 (OVCAR-3 ovarian) | GI50 (HOP-62 NSCLC) | GI50 (SNB-75 CNS) | GI50 (A498 renal) | GI50 (U251 CNS) | GI50 (HCC-2998 colon) | TGI (HCC-2998 colon) | GI50 (NCI-H522 lung)
1 | NCCN1C(=O)c2ccccc2C1(O)c1ccc(Cl)cc1 (centres undefined) | 50 µM | 27.9 µM | 36.6 µM | 57.1 µM | > 100 µM | 89.8 µM | 97.6 µM | 27.8 µM | 29.6 µM |  |  |  |  |  |  |  |  |  | 
2 | COc1cc(NC(C)CCCN)c2ncccc2c1Sc1ccc(Cl)cc1 (centres undefined) | 3.09 µM |  |  | 6.61 µM | 3.28 µM | 3.29 µM | 3.42 µM | 16.2 µM | 2.83 µM | 1.65 µM | 2.43 µM | 1.77 µM | 1.75 µM | 1.7 µM | 3.65 µM | 1.51 µM | 1.75 µM | 3.17 µM | 
3 | CC(=O)c1cccc(NC(=O)c2ccc(NC3=C(Cl)C(=O)N(Cc4ccccc4)C3=O)cc2)c1 | 36.4 µM | 19.4 µM |  | 98.9 µM | 22.7 µM |  | > 100 µM | 60.4 µM | 44.5 µM | 15.9 µM | 22.2 µM | 9.57 µM |  | 30.1 µM | 19.6 µM | 17.9 µM | 23.1 µM | 41 µM | 2.45 µM
4 | Cc1cc2c(=O)cc(-c3ccc(F)cc3)oc2c(C(=O)O)c1C |  | > 100 µM |  | > 100 µM | > 100 µM |  | > 100 µM |  | > 100 µM |  |  |  |  |  |  |  |  |  | 
5 | CCN(CC)c1ccc(/C=C/C=C(/C#N)C(N)=S)cc1 | > 100 µM | 47.8 µM |  | > 100 µM | > 100 µM | 32.3 µM | > 100 µM | 58.9 µM | > 100 µM | 5.21 µM | 30.2 µM | 10.9 µM | 5.37 µM | 20.4 µM | 10.9 µM | 7.36 µM | 6.46 µM | > 100 µM | 8.54 µM
6 | CC/C=C\C[C@H](O)C/C=C1/C(=O)C=C[C@@H]1C/C=C\CCCC(=O)NC | 4.79 µM | 3.77 µM |  | 12.9 µM | 4.11 µM | 5.33 µM | 22.7 µM | 5.12 µM | 4.26 µM | 1.95 µM | 2.94 µM | 1.2 µM | 2.3 µM | 10.8 µM | 2.34 µM | 1.3 µM | 1.82 µM | 3.35 µM | 1.54 µM
7 | Cc1cc(O)cc(C)c1/C=C/c1cncc(C(=O)OC(C)(C)C)c1 | > 25 µM | 24.8 µM |  | > 25 µM | > 25 µM | > 25 µM | > 23.9 µM | > 25 µM | > 25 µM | 10.4 µM | 20.7 µM | 17 µM | > 19.4 µM | 4.75 µM | 8.09 µM | 14.9 µM | > 25 µM | > 25 µM | 7.95 µM
8 | CC(C)(C)OC(=O)NCCCCCCCCCCn1c2c(c3ccccc3c1=O)C(=O)c1ccccc1-2 | > 100 µM | > 100 µM |  | > 100 µM | > 100 µM | > 100 µM | 28.6 µM | 66 µM | > 100 µM | > 100 µM | 21.9 µM | > 100 µM | 29.1 µM | 5.92 µM | 26.2 µM | 29 µM | > 100 µM | > 100 µM | 86.1 µM
9 | COc1ccc(/C(=N/O)c2cc(OC)c(OC)c(OC)c2)c(OC)c1N | > 100 µM | > 100 µM |  | > 100 µM |  | > 100 µM | > 100 µM | > 100 µM | > 100 µM | 3.97 µM | 14.6 µM |  | 6.55 µM | 2.21 µM | 4.01 µM | 5.65 µM | 4.29 µM | > 100 µM | 4.02 µM
10 | CC12CC(Sc3ccccc3N1)c1ccccc1O2 (centres undefined) |  |  | 58 µM | 30.4 µM | 30.3 µM | 38.4 µM | 53.3 µM | 33 µM | 26 µM |  |  |  |  |  |  |  |  | 31 µM | 
11 | O=[N+]([O-])c1ccc(COc2cccc3cccnc23)cc1 |  | 19.4 µM | 13.6 µM | 68.7 µM | > 100 µM | > 100 µM | 78.3 µM | 79.2 µM | > 100 µM |  |  |  |  |  |  |  |  | > 100 µM | 
12 | Cc1cnc(SCCN2CCN(C)CC2)nc1-c1cc2ccccc2s1 |  | 29.6 µM | 8.46 µM |  | 24.6 µM | 4.81 µM | 24.6 µM | 29.8 µM | 21.7 µM |  |  |  |  |  |  |  |  | 26.9 µM | 
13 | CCOP(=O)(CC(=O)C1=C(O)C(CCCCNC(=O)OC(C)(C)C)N(Cc2ccccc2)C1=O)OCC (centres undefined) |  | > 100 µM | > 100 µM | > 100 µM | > 100 µM | > 100 µM | > 100 µM | > 100 µM | > 100 µM |  |  |  |  |  |  |  |  | > 100 µM | 
14 | CN1C(=O)C(=CN(C)c2ccccc2)C(=O)N(C)C1=O |  |  | > 100 µM |  | > 100 µM |  | > 100 µM | > 100 µM | > 100 µM |  |  |  |  |  |  |  |  | > 100 µM | 
15 | O=C1c2c(c3c4ccccc4[nH]c3c3[nH]c4ccccc4c23)C(=O)N1Cc1ccccc1 |  | 4.72 µM |  | 14 µM | 8.16 µM | 14.8 µM | 8.01 µM |  | 6.34 µM |  |  |  |  |  |  |  |  | 16.3 µM | 
16 | Cc1cc(NS(=O)(=O)c2ccc(NC(=O)COC(=O)c3cccc4c(=O)c5ccccc5[nH]c34)cc2)no1 |  | > 100 µM | > 100 µM | > 100 µM | > 100 µM | > 100 µM | > 100 µM | > 100 µM | > 100 µM |  |  |  |  |  |  |  |  | > 100 µM | 
17 | COC1=CC(=O)NCCN1 |  | > 100 µM | > 100 µM | > 100 µM | > 100 µM | > 100 µM | > 100 µM | > 100 µM | > 100 µM |  |  |  |  |  |  |  |  | > 100 µM | 
18 | Cc1cc(C)c(C(=O)/C=C/c2ccccc2)c(C)c1 |  | 46.1 µM | > 100 µM | 50.6 µM |  | 76 µM | > 100 µM |  | 29.4 µM |  |  |  |  |  |  |  |  |  | 
19 | CC(C)(C)N=CN(C=C(c1ccccc1)c1ccccc1)C1CCCCC1 |  |  | 51 µM | > 100 µM | > 100 µM | > 100 µM | > 100 µM | 91.4 µM | > 100 µM |  |  |  |  |  |  |  |  |  | 
20 | CC(=O)NC1=C(Sc2ccc(Cl)cc2)C(=O)c2ccccc2C1=O | 11.7 µM | 1.18 µM |  | 8.41 µM | 7.07 µM |  |  | 16.4 µM | 14.9 µM |  |  |  |  |  |  |  |  | 27.8 µM | 
